Like-named read-outs stand apart in the source and are kept apart here.
How the values were obtained:
[1] = tested on: human hepatocytes; test: Metabolism and metabolite formation in hepatocytes
Description: (§9) 10 µM BPI-460372 was incubated in five species (human, cynomolgus monkey, beagle dog, SD rat, and ICR mouse) hepatocytes (1 × 10^6 cells·min^-1) at 37 °C for 4 h. 7-EC, as positive control, was incubated for 0 h and 4 h. For blank control, hepatocytes were inactivated by adding ice-cold acetonitrile, and then the BPI-460372 solution was added. All the samples were duplicates. Incubations were stopped using the same volume of cold acetonitrile. The tube was vortexed, and the duplicate samples were combined. Metabolite profiling and identification of BPI-460372 were conducted by using UHPLC-Orbitrap-HRMS. The samples of 7-EC were analyzed by LC-MS/MS and then semi-quantified using the peak area ratio of analyte versus IS.
(§10) For hepatocyte metabolite identification, the different metabolites of BPI-460372 were detected using an ACQUITY UPLC HSS T3 column (1.8 µm, 100 mm × 2.1 mm) and ACQUITY UPLC BEH C18 column (1.7 µm, 100 mm × 2.1 mm) for rat and dog metabolite identification. The mobile phase contained a mixture of 0.1% formic acid in water (A) and 0.1% formic acid in acetonitrile (B). The gradient elution program was as follows: 0.0-1.0 min, 5% B; 1.0-7.0 min, 5%-30% B; 7.0-12.0 min, 30%-80% B; 12.0-16.0 min, 80%-95% B; 16.0-18.0 min, 95% B; 18.0-18.1 min, 95%-5% B. Then, 5% B from 18.1 to 20.0 min was maintained for equilibration. The flow rate was set to 0.5 mL/min, and the column temperature was kept at 40°C. Eluted fractions were monitored by a UV detector at 314 nm.

[2] = tested on: TEAD palmitoylation; test: Inhibition of TEAD palmitoylation (in vitro); format: biochemical; details: in vitro studies
[3] = tested on: dog hepatocytes; test: Metabolism and metabolite formation in hepatocytes; format: in vitro ADME, beagle dog;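 for Area Ratio T0 h: peak area of analyte divided by internal standard peak area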;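 for Area Ratio T4 h: peak area of analyte divided by internal standard peak area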
From the text: (§1) All the samples were duplicates.

[4] = tested on: mouse hepatocytes; test: Metabolism and metabolite formation in hepatocytes; format: in vitro ADME, ICR mouse;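 for Area Ratio T0 h: peak area of analyte divided by internal standard peak area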;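 for Area Ratio T4 h: peak area of analyte divided by internal standard peak area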
From the text: as §1

[5] = tested on: monkey hepatocytes; test: Metabolism and metabolite formation in hepatocytes; format: in vitro ADME, cynomolgus monkey;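 for Area Ratio T4 h: peak area of analyte divided by internal standard peak area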
From the text: as §1

[6] = Metabolite identification in rat plasma, urine, feces and bile; format: in vivo, SD rats
Description: (§2) The plasma samples were acquired from SD rats (n=6, 3 female and 3 male) and beagle dogs (n=6, 3 female and 3 male) after administration of 12 mg/kg and 8 mg/kg of BPI-460372, respectively. The rat urine, feces, and bile samples were acquired in SD rats after administration of 6 mg/kg of BPI-460372.
(§3) Equal volume from each rat was pooled together to get 1 male and 1 female 0-24 h plasma samples. An equal percentage by volume of individual urine sample (0-8, 8-24, and 24-48 h) from 3 female and 3 male rats was pooled by time interval across rats, respectively, resulting in two pooled urine samples (1 male and 1 female). An equal percentage by weight of individual feces samples (0-8, 8-24, and 24-48 h) was pooled by time interval across female and male rats, resulting in two pooled fecal samples. An equal percentage by volume of individual bile samples (0-4, 4-8, 8-24, and 24-48 h) was pooled by time interval across female and male rats, resulting in two pooled bile samples. […] Equal volumes from 3 female and 3 male rats were pooled together to get two 0-48 h plasma samples. For blank samples of plasma, urine, and bile, equal volume was pooled across subjects. For a blank sample of feces, equal weight was pooled across rats.
(§4) The pooled plasma, feces, and bile samples were extracted by adding 3-fold volume of acetonitrile, and the mixture was vortexed (1 min) and sonicated (1 min) before centrifugation (7220 g, 5 min). The pooled urine samples were centrifuged (7220 g, 5 min). Then the supernatant was transferred into a clean tube and evaporated to dryness under the nitrogen stream. The residues were redissolved with an appropriate volume of acetonitrile/water (20: 80, v: v). After centrifugation, the redissolved solution was transferred into an HPLC vial for UHPLC-Orbitrap-HRMS (15000 g, 10 min, 4°C).

[7] = tested on: cysteine S-conjugate β-lyase; test: Effect of cysteine S-conjugate β-lyase inhibitor AOAA on the metabolism of BPI-460372 (rat urine); details: 20 mg/kg BPI-460372 + 100 mg/kg AOAA, once daily 21 days, urine 0-48 h on day 21
Description: To investigate the effect of cysteine S-conjugate β-lyase on the metabolism of BPI-460372, SD rats were treated with 20 mg/kg BPI-460372 alone (n=3, male) or 20 mg/kg BPI-460372 coadministration with 100 mg/kg cysteine S-conjugate β-lyase inhibitor AOAA (n=3, male), once daily for 21 consecutive days. On day 21, urine samples were collected at 0-8, 8-24 and 24-48 h. The same percentage of urine samples from each rat was taken at these three time intervals and mixed. The samples were analyzed by LC-MS/MS and then semi-quantified using the peak area ratio of analyte versus IS.

[8] = tested on: rat hepatocytes; test: Metabolism and metabolite formation in hepatocytes; format: in vitro ADME, SD rat;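 for Area Ratio T0 h: peak area of analyte divided by internal standard peak area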
From the text: as §1

[9] = Formation of M335 in HLMs with and without NADPH; format: in vitro ADME, human; details: 45 minutes of incubation of BPI-460372 with HLMs
[10] = Metabolite identification in dog plasma; format: in vivo, beagle dogs; details: oral 8 mg/kg BPI-460372, average of male and female pooled samples
Description: as §2, §3, §4

[11] = tested on: TEAD proteins; test: Covalent binding to TEAD proteins (in vitro); details: in vitro studies
[12] = design: method as in PMID 32250617; details: human whole blood, compared with compound 18 (acrylamide warhead); cited from earlier work
[13] = design: method as in PMID 32250617; details: mouse whole blood, compared with compound 18 (acrylamide warhead); cited from earlier work
[14] = design: method as in PMID 32250617; details: dog whole blood, compared with compound 18 (acrylamide warhead); cited from earlier work
[15] = target: T1, CYP2C9 (Homo sapiens, UniProt P11712); test: Metabolic stability in recombinant human CYP isoenzymes; format: in vitro ADME; design: purchased Cypex Ltd. (Dundee, UK); details: rCYP2C9, 1 µM
T1 sequence (P11712 whole entry, canonical isoform): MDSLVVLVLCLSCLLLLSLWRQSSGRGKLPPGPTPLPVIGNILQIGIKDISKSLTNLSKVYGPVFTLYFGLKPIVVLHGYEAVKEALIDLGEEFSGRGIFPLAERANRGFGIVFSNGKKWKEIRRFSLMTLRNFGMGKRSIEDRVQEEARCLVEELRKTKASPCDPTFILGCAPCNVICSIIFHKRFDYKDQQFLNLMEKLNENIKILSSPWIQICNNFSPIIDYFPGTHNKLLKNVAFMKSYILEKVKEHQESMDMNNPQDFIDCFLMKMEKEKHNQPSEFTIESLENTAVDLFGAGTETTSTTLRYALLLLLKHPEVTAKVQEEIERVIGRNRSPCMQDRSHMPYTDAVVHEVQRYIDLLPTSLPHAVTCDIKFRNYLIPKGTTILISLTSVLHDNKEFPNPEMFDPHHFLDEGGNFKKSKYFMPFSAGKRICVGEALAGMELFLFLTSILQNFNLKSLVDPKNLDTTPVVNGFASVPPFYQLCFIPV
Description: (§5) To identify the specific isoform that participates in the metabolism of BPI-460372, 1 µM BPI-460372 or positive control substrates were mixed with recombinant human CYP1A2, 2B6, 2C8, 2C9, 2C19, 2D6 or 3A4 (100 pmol P450·mL^-1), and the reaction was started by the addition of NADPH (1 mM final concentration) after 5-minute preincubation at 37°C. Aliquots were maintained in acetonitrile containing IS at different time points at 0 min, 5 min, 10 min, 20 min, 30 min, and 60 min. All incubations were performed in triplicate, and the concentration of the supernatant was determined by LC-MS/MS.
(§6) A substrate depletion approach was employed to determine the intrinsic clearance (CLint (rCYPj)) for each isoform. The contribution of each isoform was estimated using equations 2 and 3. CYPj abundance was evaluated as the abundance (CYPj) of each isoform in HLMs (pmol/mg protein).

[16] = target: T1, CYP2C9; test: Metabolic stability in HLMs with or without specific CYP inhibitor (sulfaphenazole); format: in vitro ADME; design: HLMs (1 mg protein·mL^-1); tissue BioIVT; host or cells: pooled human liver microsomes; details: 1 µM, pH 7.4
Description: (§7) Before starting the experiments, the HLMs were thawed gently on ice. Metabolic stability incubations were performed at 37 °C. The incubations contained 100 mM phosphate buffer saline (PBS, pH 7.4), HLMs (1 mg protein·mL^-1), dimethyl sulfoxide (DMSO, blank control) or a selective CYP inhibitor, and BPI-460372 or positive control substrates (final incubation concentration, 1 μM). The incubation process started with the addition of NADPH (1 mM final concentration) after a 5-minute preincubation period. The chemical inhibitors were as follows: a-naphthoflavone (2 µM) for CYP1A2, ticlopidine (20 µM) for 2B6, quercetin (20 µM) for CYP2C8, sulfaphenazole (20 µM) for CYP2C9, ticlopidine (200 µM) for CYP2C19, quinidine (20 µM) for CYP2D6, and ketoconazole (20 µM) for CYP3A [9]. Aliquots were maintained in acetonitrile containing internal standard (IS) at various time points, such as 0 min, 5 min, 10 min, 20 min, 30 min, and 60 min. All incubations were performed in triplicate, and the concentration in the supernatant was determined by liquid chromatography-tandem mass spectrometry (LC-MS/MS).
(§8) The elimination rate constant k (min^-1) was obtained by linear regression from the natural logarithm of the […] of the parent drug and the incubation time. The inhibition rate was calculated using equation 1 [10]: […]

[17] = target: T2, CYP2D6 (Homo sapiens, UniProt P10635); test: Metabolic stability in HLMs with or without specific CYP inhibitor (quinidine); format: in vitro ADME; design: HLMs (1 mg protein·mL^-1); tissue BioIVT; host or cells: pooled human liver microsomes; details: HLMs 1 mg protein/mL, substrate 1 μM, quinidine 20 µM
T2 sequence (P10635 whole entry): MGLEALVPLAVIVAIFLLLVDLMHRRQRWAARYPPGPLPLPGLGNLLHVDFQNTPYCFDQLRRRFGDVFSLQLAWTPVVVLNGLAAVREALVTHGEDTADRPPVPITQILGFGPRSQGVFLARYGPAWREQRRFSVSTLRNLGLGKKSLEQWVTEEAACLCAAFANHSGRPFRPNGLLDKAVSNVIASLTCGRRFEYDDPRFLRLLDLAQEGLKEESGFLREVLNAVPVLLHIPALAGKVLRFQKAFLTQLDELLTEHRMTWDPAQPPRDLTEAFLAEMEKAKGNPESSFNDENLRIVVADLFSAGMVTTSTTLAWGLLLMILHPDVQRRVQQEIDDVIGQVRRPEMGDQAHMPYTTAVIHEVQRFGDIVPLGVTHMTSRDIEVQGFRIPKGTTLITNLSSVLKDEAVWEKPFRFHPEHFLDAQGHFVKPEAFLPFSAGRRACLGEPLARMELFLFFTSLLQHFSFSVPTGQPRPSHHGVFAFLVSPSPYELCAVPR
Description: as §7, §8

[18] = target: T2, CYP2D6; test: Metabolic stability in recombinant human CYP isoenzymes; format: in vitro ADME; design: purchased Cypex Ltd. (Dundee, UK); details: in 5 min
Description: as §5, §6

[19] = target: T3, recombinant human CYP3A4 (Homo sapiens, UniProt P08684); test: as above; format: in vitro ADME; details: rCYP3A4, 1 µM
T3 construct: purchased Cypex Ltd. (Dundee, UK)
T3 sequence (P08684 whole entry): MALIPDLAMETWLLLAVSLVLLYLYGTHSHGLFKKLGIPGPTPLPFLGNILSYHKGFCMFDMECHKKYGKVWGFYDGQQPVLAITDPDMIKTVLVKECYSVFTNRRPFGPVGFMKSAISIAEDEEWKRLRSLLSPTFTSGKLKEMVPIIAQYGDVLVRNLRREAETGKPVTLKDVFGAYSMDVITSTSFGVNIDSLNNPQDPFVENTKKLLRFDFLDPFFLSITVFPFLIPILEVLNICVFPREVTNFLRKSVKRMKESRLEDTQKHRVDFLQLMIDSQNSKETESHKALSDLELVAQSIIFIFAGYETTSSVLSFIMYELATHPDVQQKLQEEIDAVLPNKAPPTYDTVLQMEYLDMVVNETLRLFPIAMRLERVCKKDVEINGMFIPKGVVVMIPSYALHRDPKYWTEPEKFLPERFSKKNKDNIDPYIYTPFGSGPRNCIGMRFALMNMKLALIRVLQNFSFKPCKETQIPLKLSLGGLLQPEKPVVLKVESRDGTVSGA
Description: as §5, §6

[20] = tested on: CYP3A4; test: Metabolic stability in HLMs with or without specific CYP inhibitor (ketoconazole); format: in vitro ADME, human; details: HLMs 1 mg protein/mL, substrate 1 μM, ketoconazole 20 µM
Description: as §7, §8

[21] = tested on: human hepatocytes; details: 0 h
Description: as §9, §10

[22] = tested on: CYPs and GSTs; design: method as in earlier work; details: multiple CYPs and GSTs pathways; cited from earlier work
[23] = oral 6 mg/kg BPI-460372, average of male and female pooled samples

O=c1n(-c2ccc(C(F)(F)F)cc2)c2nccnc2n1C1CNC1 [M335 (BPI-460608)]
UV (314 nm) Peak Areas Relative Abundance ([1]; human hepatocytes, 10 µM BPI-460372, 4 h incubation): 11.47% | Activity: inhibition of TEAD palmitoylation [2]: inactive | UV (314 nm) Peak Areas Relative Abundance ([3]; beagle dog hepatocytes, 10 µM BPI-460372, 4 h incubation): 18.82% | UV (314 nm) Peak Areas Relative Abundance ([4]; ICR mouse hepatocytes, 10 µM BPI-460372, 4 h incubation): 26.4% | UV (314 nm) Peak Areas Relative Abundance ([5]; cynomolgus monkey hepatocytes, 10 µM BPI-460372, 4 h incubation): 16.99% | Relative abundance of MS peak areas, Rat Bile 0-48 h [6, 23]: 0.070% | Relative abundance of MS peak areas, Rat Feces 0-48 h [6, 23]: 4.83% | Relative abundance of MS peak areas, Rat Urine 0-48 h [6, 23]: 13.23% | Relative abundance of MS peak areas, Rat Plasma 0-24 h ([6]; oral 12 mg/kg BPI-460372, average of male and female pooled samples): 2.48% | Area ratio in rat urine, mean (%CV) [7]: 1.41 (48) | UV (314 nm) Peak Areas Relative Abundance ([8]; SD rat hepatocytes, 10 µM BPI-460372, 4 h incubation): 3.9% | Formation of M335 without NADPH versus HLMs+NADPH group [9]: comparable | Relative abundance of MS peak areas, Dog Plasma 0-48 h [10]: 8.45% | Covalent binding to TEAD proteins [11]: do not covalently bind

C=C(F)C(=O)N1CCN(c2nc(OC[C@@H]3CCCN3C)nc3c2CCN(c2cccc4cccc(Cl)c24)C3)C[C@@H]1CC#N [Adagrasib]
Stability in whole blood [12]: higher stability | Stability in whole blood [13]: higher stability | Stability in whole blood [14]: higher stability

O=C(O)Cc1ccccc1Nc1c(Cl)cccc1Cl [Diclofenac, diclofenac, reference compound]
CLint (rCYPj) [15]: 3.53 µL/min/pmol | Inhibition Rate [16]: 98.2%

COc1ccc2c(c1)[C@]13CCCC[C@@H]1[C@H](C2)N(C)CC3 [Dextromethorphan, reference compound]
Inhibition Rate [17]: 87.1% | Extent of metabolism in recombinant human CYP2D6 [18]: completely metabolized

Cc1ncc2n1-c1ccc(Cl)cc1C(c1ccccc1F)=NC2 [Midazolam, midazolam, reference compound]
CLint (rCYPj) [19]: 1.93 µL/min/pmol | Inhibition Rate [20]: 99.7%

CCOc1ccc2ccc(=O)oc2c1 [7-EC, 7-ethoxycoumarin, reference compound]
Area Ratio T4 h ([1]; human hepatocytes, 7-EC incubation, 4 h): 7.50E+06 | Proportion of 7-EC remaining in hepatocytes after 4 h incubation ([1]; human, hepatocytes): 22.32% | Area Ratio T0 h ([3]; dog hepatocytes, 7-EC incubation, 0 h): 2.18E+07 | Area Ratio T4 h ([3]; dog hepatocytes, 7-EC incubation, 4 h): 1.01E+05 | Proportion of 7-EC remaining in hepatocytes after 4 h incubation ([3]; dog, hepatocytes): 0.46% | Area Ratio T0 h ([4]; mouse hepatocytes, 7-EC incubation, 0 h): 2.39E+07 | Area Ratio T4 h ([4]; mouse hepatocytes, 7-EC incubation, 4 h): 1.46E+05 | Proportion of 7-EC remaining in hepatocytes after 4 h incubation ([4]; mouse, hepatocytes): 0.61% | Area Ratio T0 h ([5]; monkey hepatocytes, 7-EC incubation, 0 h): 2.65E+07 | Area Ratio T4 h ([5]; monkey hepatocytes, 7-EC incubation, 4 h): 9.51E+04 | Proportion of 7-EC remaining in hepatocytes after 4 h incubation ([5]; monkey, hepatocytes): 0.36% | Area Ratio T0 h ([8]; rat hepatocytes, 7-EC incubation, 0 h): 2.64E+07 | Area Ratio T4 h ([8]; rat hepatocytes, 7-EC incubation, 4 h): 6.62E+06 | Proportion of 7-EC remaining in hepatocytes after 4 h incubation ([8]; rat, hepatocytes): 25.08% | Area Ratio T0 h [21]: 3.36E+07

C=CC(=O)N1C[C@H](Nc2ncnc3[nH]ccc23)CC[C@@H]1C [Ritlecitinib]
Contribution of any single route to the total metabolism [22]: ≤ 25%
